Where “and” joins values, the source holds several entries; their conditions need not be identical. Equal entries are not always repeated.
Tests used:
[1] = Measurement of maximum absorption wavelength, maximum fluorescence wavelength and fluorescence quantum yield in solvents; type: physicochemical
Experimental: Using a luminescent quantum yield measurement apparatus ([…]-01, manufactured by Hamamatsu Photonics K.K.), the maximum absorption wavelength (λabs/nm), the maximum fluorescence wavelength (λflu/nm), and the fluorescence quantum yield (Φf) of the compound in each solvent were measured. The absorption spectrum was measured using an ultraviolet and visible spectrophotometer (Ubest-550, manufactured by JASCO Corporation), and the fluorescence emission spectrum was measured using a fluorescence spectrophotometer (F-7000, manufactured by Hitachi, Ltd.)

[2] = test system: lipid droplets in HeLa cells; assay: Multicolor imaging and time-course imaging of lipid droplet formation in HeLa cells; type: cell-based
Experimental: Further, HeLa cells were cultured for 30 minutes in a medium to which PC6S was added to a final concentration of 100 nM, and PC6S unincorporated in the cells was removed, followed by acquiring a fluorescence imaging image (Hour 0) using an inverted fluorescence microscope in the same manner as in Example 2. The cells were cultured in the presence of 400 μM oleic acid for 24 hours, and their fluorescence imaging images were acquired 4, 8, 12, and 24 hours later.

[3] = test system: lipid droplets in HeLa cells; assay: Fluorescence imaging of lipid droplets in oleic acid-treated HeLa cells; type: cell-based
Excerpt: Since LipiDye requires use of an excitation wavelength of about 405 nm, there is a concern about phototoxicity to cells in cases of long observation.

SMILES: CCN(CC)c1ccc2cc3cc(-c4nc5ccccc5s4)c(=O)oc3cc2c1 [PC6S, 3-(Benzo[d]thiazol-2-yl)-8-(diethylamino)-2H-benzo[g]chromen-2-one]
- Φf (fluorescence quantum yield) ([1]; in Bu2O (dibutyl ether)): 0.88
- λmax abs (maximum absorption wavelength) ([1]; in Bu2O (dibutyl ether)): 468 nm
- λmax flu (maximum fluorescence wavelength) ([1]; in Bu2O (dibutyl ether)): 538 nm
- Φf (fluorescence quantum yield) ([1]; in DMSO): 0.83
- λmax abs (maximum absorption wavelength) ([1]; in DMSO): 504 nm
- λmax flu (maximum fluorescence wavelength) ([1]; in DMSO): 642 nm
- Φf (fluorescence quantum yield) ([1]; in EtOAc): 0.84
- λmax abs (maximum absorption wavelength) ([1]; in EtOAc): 483 nm
- λmax flu (maximum fluorescence wavelength) ([1]; in EtOAc): 585 nm
- Φf (fluorescence quantum yield) ([1]; in MeCN): 0.80
- λmax abs (maximum absorption wavelength) ([1]; in MeCN): 492 nm and 493 nm
- λmax flu (maximum fluorescence wavelength) ([1]; in MeCN): 625 nm
- fluorescence quantum yield ([1]; in any of the solvents of Table 1): not less than 0.8
- Φf (fluorescence quantum yield) ([1]; in n-Hexane): 0.89
- λmax abs (maximum absorption wavelength) ([1]; in n-Hexane): 455 nm
- λmax flu (maximum fluorescence wavelength) ([1]; in n-Hexane): 498 nm
- imaging of lipid droplet formation over time ([2]; 100 nM, then 400 μM oleic acid, 4, 8, 12 and 24 hours): the process of gradual formation of lipid droplets could be imaged over time
- multicolor imaging ([2]; combined use with Hoechst 33342 and Mito tracker red): multicolor imaging was possible
- imaging of lipid droplets / lipid droplet selectivity in HeLa cells ([3]; 100 nM reagent, 30 minutes, 400 μM oleic acid 48 hours): capable of clear imaging of lipid droplets
- fluorescence intensity of HeLa cells ([3]; 100 nM reagent, 30 minutes, compared with BODIPY493/503 or Lipi Green): higher fluorescence intensities
- Brightness in cells ([3]; summary grade, Table 3): ⊚
- Selectivity for lipid droplets ([3]; summary grade, Table 3): ◯
